# Key:
# sapstain fungi = test: In vivo test of activity against sapstain fungi (dipped pine bundles); details: 50% suspension concentrate diluted to 0.25%, 60 s dip, after 4 weeks; compared with wood dipped only in water
# Source text: Bundles consisting of 7 pieces of freshly cut pine (approximate sizes of 20 cm×30 cm) were dipped in a 50% suspension concentrate of fluquinconazole, diluted to 0.25%, for 60 seconds, ensuring each piece of wood was separated from its contacting pieces. The wood was removed from the liquid and allowed to drain for 10 seconds and then placed in an unsealed polythene bag at room temperature. The bag was used in order to maintain a high relative humidity, which promotes growth of sapstain. The wood was removed for examination after 4 weeks and divided into two in order to expose the centre of the bundles. These were assessed for sapstain infection.
# [1] = system: wood rotting fungi (mainly basidiomycetes); test: In vivo test of activity against wood destroying fungi (dipped pine pieces); details: 100 ppm fluquinconazole, formulation containing di(2-ethylhexyl)octyl phosphonate, 5 weeks in sealed bag, compared with standards without pesticide
# Experimental: Pieces of pine were dipped into a fluquinconazole formulation containing di(2-ethylhexyl)octyl phosphonate at different rates and then removed and put, whilst soaking wet, into a polythene bag which was sealed and left in a greenhouse for 5 weeks. The degree of control of wood rotting fungi (mainly basidiomycetes) was then assessed.
# Gloephyllum trabeum = test: In vitro malt agar test, colony diameter; format: cell-based; details: assessed after 11 days
# Experimental: A 50% SC of fluquinconazole (fq) was incorporated into malt agar at various rates and the agar placed into Petri dishes. Into the centre of each plate was implanted a 4 mm plug of the mycelium of a wood rotting fungus. […] The experiment was also carried out with a fluquinconazole formulation containing di(2-ethylhexyl)octyl phosphonate (ph) with and without prochloraz (pz).
# Coriolus versicolor = test: In vitro malt agar test, colony diameter; format: cell-based; details: assessed after 6 days
# Experimental: (§1) A 50% SC of fluquinconazole (fq) was incorporated into malt agar at various rates and the agar placed into Petri dishes. Into the centre of each plate was implanted a 4 mm plug of the mycelium of a wood rotting fungus. The plates were kept at 20° C. in a darkened room for 6 days when the control of the fungus by the fluquinconazole was assessed. The experiment was also carried out with a fluquinconazole formulation containing di(2-ethylhexyl)octyl phosphonate (ph) with and without prochloraz (pz).
# Coniophora puteana = test: In vitro malt agar test, colony diameter; format: cell-based; details: assessed after 6 days
# Experimental: as §1
# Poria placenta = test: In vitro malt agar test, colony diameter; format: cell-based; details: assessed after 6 days
# Experimental: as §1
structure (smiles),measurement,setting,value
"O=c1c2cc(F)ccc2nc(-n2cncn2)n1-c1ccc(Cl)cc1Cl [fluquinconazole, 3-(2,4-dichlorophenyl)-6-fluoro-2-(1H-1,2,4-triazol-1-yl)-4(3H)-quinazolinone]",control of the sapstain,sapstain fungi,> 60%
same,control of wood rotting fungi,[1],73.1%
same,% Control based on colony diameter,Gloephyllum trabeum; 1 ppm,80.5%
same,% Control based on colony diameter,Gloephyllum trabeum; 5 ppm,94.0%
same,% Control based on colony diameter,Gloephyllum trabeum; 10 ppm,95.0%
same,% Control based on colony diameter,Gloephyllum trabeum; 25 ppm,92.5%
same,% Control based on colony diameter,Gloephyllum trabeum; 100 ppm,94.0%
same,% Control based on colony diameter,Coriolus versicolor; 1 ppm,100.0%
same,% Control based on colony diameter,Coriolus versicolor; 5 ppm,100.0%
same,% Control based on colony diameter,Coriolus versicolor; 10 ppm,100.0%
same,% Control based on colony diameter,Coriolus versicolor; 25 ppm,100.0%
same,% Control based on colony diameter,Coriolus versicolor; 100 ppm,100.0%
same,% Control based on colony diameter,Coniophora puteana; 1 ppm,50.4%
same,% Control based on colony diameter,Coniophora puteana; 5 ppm,75.6%
same,% Control based on colony diameter,Coniophora puteana; 10 ppm,84.7%
same,% Control based on colony diameter,Coniophora puteana; 25 ppm,68.7%
same,% Control based on colony diameter,Coniophora puteana; 100 ppm,77.9%
same,% Control based on colony diameter,Poria placenta; 1 ppm,99.4%
same,% Control based on colony diameter,Poria placenta; 5 ppm,100.0%
same,% Control based on colony diameter,Poria placenta; 10 ppm,100.0%
same,% Control based on colony diameter,Poria placenta; 25 ppm,100.0%
same,% Control based on colony diameter,Poria placenta; 100 ppm,100.0%
